Results: the Kinase Knowledgebase extract (Sharma et al. 2016)

Biological target: PIK3CG (human) (UniProt P48736)
Assay: Inhibition of PIK3CG Kinase Activity

PIK3CG (human), sequence (P48736 whole entry, looked up): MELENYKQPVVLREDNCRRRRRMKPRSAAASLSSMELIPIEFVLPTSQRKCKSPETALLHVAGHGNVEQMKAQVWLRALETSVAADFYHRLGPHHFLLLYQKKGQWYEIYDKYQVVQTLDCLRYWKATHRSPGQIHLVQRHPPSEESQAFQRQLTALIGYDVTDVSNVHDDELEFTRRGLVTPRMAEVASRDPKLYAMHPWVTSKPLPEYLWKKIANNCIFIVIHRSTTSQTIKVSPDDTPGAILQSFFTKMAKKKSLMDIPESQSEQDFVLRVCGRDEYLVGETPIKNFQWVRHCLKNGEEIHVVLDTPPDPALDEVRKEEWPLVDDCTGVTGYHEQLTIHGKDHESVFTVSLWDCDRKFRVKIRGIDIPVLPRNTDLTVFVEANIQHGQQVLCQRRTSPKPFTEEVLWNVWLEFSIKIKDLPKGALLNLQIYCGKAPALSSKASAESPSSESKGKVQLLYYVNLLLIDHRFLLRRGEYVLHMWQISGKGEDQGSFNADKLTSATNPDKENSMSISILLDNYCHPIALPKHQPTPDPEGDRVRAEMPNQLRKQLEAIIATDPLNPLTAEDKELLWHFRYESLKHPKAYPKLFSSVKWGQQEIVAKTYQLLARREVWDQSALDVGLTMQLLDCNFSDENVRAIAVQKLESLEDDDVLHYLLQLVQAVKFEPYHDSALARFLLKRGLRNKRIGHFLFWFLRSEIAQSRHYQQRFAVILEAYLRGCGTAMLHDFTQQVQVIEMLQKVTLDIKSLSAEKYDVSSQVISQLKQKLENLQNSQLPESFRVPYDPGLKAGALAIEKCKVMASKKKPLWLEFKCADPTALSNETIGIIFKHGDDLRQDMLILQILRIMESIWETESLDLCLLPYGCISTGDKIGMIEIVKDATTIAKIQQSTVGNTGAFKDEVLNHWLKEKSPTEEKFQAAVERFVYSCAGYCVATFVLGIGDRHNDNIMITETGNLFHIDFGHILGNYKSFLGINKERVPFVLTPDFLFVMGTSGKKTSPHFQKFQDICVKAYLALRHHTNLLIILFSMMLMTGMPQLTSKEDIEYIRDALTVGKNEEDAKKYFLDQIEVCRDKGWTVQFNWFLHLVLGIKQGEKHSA

Ki	SMILES
< 100 nM	COc1cc(-c2ccc3c(n2)C(C)N(c2cnn(C(C)(C)C#N)c2)C3=O)cnc1OC (centres undefined)
< 100 nM	COc1cncc(-c2cc(C)c3c(n2)CN(c2cnn(CC(F)(F)F)c2)C3=O)c1
< 100 nM	CC[C@@H]1c2nc(-c3cnc(OC)c(OC)c3)ccc2C(=O)N1c1cnn(CC(F)(F)F)c1
< 100 nM	COc1cncc(-c2cc(C)c3c(n2)CN(c2cnn(C(C)(C)C#N)c2)C3=O)c1
< 100 nM	COc1cc(-c2cc(C)c3c(n2)CN(c2cnn(C[C@H](C)O)c2)C3=O)cnc1OC
< 100 nM	COc1cc(-c2ccc3c(n2)[C@H](OC)N(c2cnn(CC(F)(F)F)c2)C3=O)cnc1OC
< 100 nM	COc1cc(-c2cc(C)c3c(n2)CN(c2cc(C)n(CCC4OCCCO4)n2)C3=O)cnc1OC
< 100 nM	Cc1cc(-c2cncc(C(=O)O)c2)nc2c1C(=O)N(c1cnn(CC(F)(F)F)c1)C2
< 100 nM	COc1cc(-c2ccc3c(n2)[C@@H](C)N(c2cc[nH]n2)C3=O)cnc1OC
< 100 nM	COc1cc(-c2ccc3c(n2)C(C)N(c2cc[nH]n2)C3=O)cnc1OC (centres undefined)
< 100 nM	COc1cc(N2Cc3nc(-c4cnc(OC)c(OC)c4)cc(C)c3C2=O)ccn1
< 100 nM	COc1cc(-c2ccc3c(n2)[C@@H](C)N(c2ccn(CC(F)(F)F)n2)C3=O)cnc1OC
< 100 nM	CCn1ncc(N2Cc3nc(-c4cnc(OC)c(OC)c4)cc(C)c3C2=O)n1
< 100 nM	Cc1cc(-c2cncc(OC(F)F)c2)nc2c1C(=O)N(c1cn[nH]c1)C2
< 100 nM	COc1cncc(-c2cc(C)c3c(n2)CN(c2cnn(C[C@H](C)F)c2)C3=O)c1
100 to 490 nM	Cc1ncc(-c2ccc3c(n2)CN(c2cnn(CC(F)(F)F)c2)C3=O)cc1O
< 100 nM	COc1cc(-c2cc(C)c3c(n2)CN(c2cncc(C#N)c2)C3=O)cnc1OC
< 100 nM	CCNC(=O)Cn1cc(N2Cc3nc(-c4cnc(OC)c(OC)c4)ccc3C2=O)cn1
100 to 490 nM	Cc1cc(-c2cnc3ccccc3c2)nc2c1C(=O)N(c1cn[nH]c1)C2
< 100 nM	COc1cc(-c2cc(C)c3c(n2)CN(c2ccn(C(F)F)c(=O)c2)C3=O)cnc1OC
< 100 nM	COc1cncc(-c2cc(C)c3c(n2)C(C)N(c2ccn(C)n2)C3=O)c1 (centres undefined)
< 100 nM	COc1cc(-c2ccc3c(c2)CN(c2cnn([C@@H](C)C#N)c2)C3=O)cnc1OC
< 100 nM	COc1cc(-c2cc(C)c3c(n2)CN(c2cnc(NC(C)=O)c(C)c2)C3=O)cnc1OC
< 100 nM	COc1cc(-c2cc(C)c3c(n2)CN(c2cncc(OCC(F)(F)F)c2)C3=O)cnc1OC

Ki	SMILES
< 100 nM	COCCNC(=O)c1cc(-c2cc(C)c3c(n2)C(C)(C)N(c2cnn(CC(F)(F)F)c2)C3=O)cnc1OC
< 100 nM	COc1cc(-c2ccc3c(n2)CN(c2cn[nH]c2)C3=O)cnc1OC
< 100 nM	C=C(F)Cn1cc(N2Cc3nc(-c4cnc(OC)c(OC)c4)ccc3C2=O)cn1
100 to 490 nM	COc1cc(-c2ccc3c(n2)CN(c2cnn(CC4CCN(C(=O)OC(C)(C)C)CC4)c2)C3=O)cnc1OC
< 100 nM	Cc1cc(-c2cncc(C(F)(F)F)c2)cc2c1C(=O)N(c1cnn(CC(F)(F)F)c1)C2C (centres undefined)
< 100 nM	CCOc1ncc(-c2cc(C)c3c(n2)CN(c2cncc(CCC#N)c2)C3=O)cc1OC
< 100 nM	COc1cncc(-c2cc(C)c3c(n2)C2(CN(C(C)=O)C2)N(c2cnn(CC(F)(F)F)c2)C3=O)c1
< 100 nM	C=C(F)Cn1cc(N2C(=O)c3c(C)cc(-c4cncc(OC)c4)nc3C2(C)C)cn1
< 100 nM	COc1ncc(-c2ccc3c(n2)C(C)N(c2cnn(CC(F)(F)F)c2)C3=O)cc1O (centres undefined)
< 100 nM	Cc1cc(-c2cncc(OC(F)F)c2)nc2c1C(=O)N(c1cnn(C)c1)C2
< 100 nM	COc1cncc(-c2cc(C)c3c(n2)CN(c2ccn([C@@H]4CCOC4)n2)C3=O)c1
100 to 490 nM	Cc1cc(-c2cncc(C(=O)N(C)C(C)CO)c2)nc2c1C(=O)N(c1cnn(CC(F)(F)F)c1)C2 (centres undefined)
< 100 nM	COc1cc(OC)cc(-c2cc(C)c3c(n2)CN(c2cnn(C(C)(C)C#N)c2)C3=O)c1
< 100 nM	COc1cc(-c2cc(C)c3c(n2)CN(c2cncc(OCCO)c2)C3=O)cnc1OC
< 100 nM	Cc1cc(-c2cncc(OCC(F)F)c2)nc2c1C(=O)N(c1cnn(CC#N)c1)C2(C)C
< 100 nM	COc1cc(-c2ccc3c(n2)[C@@H](C)N(c2cnn(CC#N)c2)C3=O)cnc1OC
< 100 nM	COc1cc(-c2cc(C)c3c(n2)CN(c2ccc(OCC(F)F)nc2)C3=O)cnc1OC
< 100 nM	COc1ncc(-c2cc(C)c3c(n2)CN(c2ccn(C(C)(C)C#N)n2)C3=O)cc1OCC(F)F
< 100 nM	Cc1cc(-c2cncc(C(=O)N(C)C(C)C)c2)nc2c1C(=O)N(c1cnn(CC(F)(F)F)c1)C2(C)C
< 100 nM	COc1cc(-c2cc(C)c3c(n2)CN(c2ccc(C(C)(C)O)nc2)C3=O)cnc1OC
< 100 nM	Cc1cc(-c2cncc(OC(F)F)c2)nc2c1C(=O)N(c1cnn(CC(F)(F)F)c1)C21CC1
< 100 nM	COc1ncc(-c2cc(C)c3c(n2)CN(c2cnn(CC#N)c2)C3=O)c(OC)n1
100 to 490 nM	CCCOCCOc1ncc(-c2cc(C)c3c(n2)CN(c2cnn(CC(F)(F)F)c2)C3=O)cc1OC
< 100 nM	COc1cc(-c2cc(C)c3c(n2)[C@@]2(CCCO2)N(c2cnn(CC(F)(F)F)c2)C3=O)cnc1OC(C)C

Ki	SMILES
< 100 nM	COc1cc(OC)cc(-c2cc(C)c3c(n2)CN(c2cnn(CC#N)c2)C3=O)c1
100 to 490 nM	CCc1cc(N2Cc3nc(-c4cncc(OC(F)F)c4)ccc3C2=O)nn1C[C@H](C)O
< 100 nM	COc1cc(-c2ccc3c(n2)C(N2CC[C@@H](F)C2)N(c2cnn(CC(F)(F)F)c2)C3=O)cnc1OC (some centres undefined)
< 100 nM	COc1cc(-c2cc(C)c3c(n2)CN(c2cnn(CC(F)(F)F)c2)C3=O)ccn1
< 100 nM	CCn1cc(N2Cc3nc(-c4cnc(OC)c(OC)c4)cc(C)c3C2=O)nn1
< 100 nM	COc1cc(-c2ccc3c(n2)CN(c2cnn(Cc4cscn4)c2)C3=O)cnc1OC
< 100 nM	COc1cc(-c2ccc3c(n2)[C@H](C)N(c2ccn(CC(C)(C)F)n2)C3=O)cnc1OC
< 100 nM	Cc1cc(-c2cncc(OCC(F)F)c2)nc2c1C(=O)N(c1ccn([C@H]3CCOC3)n1)C2
< 100 nM	COc1cc(-c2cc(C)c3c(n2)C(OCC(F)(F)F)N(c2cnn(CC(F)(F)F)c2)C3=O)cnc1OC (centres undefined)
100 to 490 nM	Cc1cc(-c2cncc(OCC(F)F)c2)nc2c1C(=O)N(c1cc[nH]n1)C2C (centres undefined)
< 100 nM	CCCNC(=O)c1cncc(-c2cc(C)c3c(n2)C(C)(C)N(c2cnn(CC(F)(F)F)c2)C3=O)c1
100 to 490 nM	CCOC(=O)c1cncc(N2Cc3nc(-c4cnc(OC)c(OC)c4)ccc3C2=O)c1
< 100 nM	CCn1ccc(N2Cc3nc(-c4cnc(OC)c(OC)c4)ccc3C2=O)n1
100 to 490 nM	COc1ncc(-c2ccc3c(n2)CN(c2cnn(CC#N)c2)C3=O)cn1
< 100 nM	COc1cc(-c2ccc3c(n2)CN(c2ccn(CC(F)F)c(=O)c2)C3=O)cnc1OC
< 100 nM	Cc1cc(-c2cncc(NS(=O)(=O)C(C)C)c2)nc2c1C(=O)N(c1cnn(CC(F)(F)F)c1)C2(C)C
< 100 nM	COc1cc(-c2ccc3c(n2)C(C)(C)N(c2cnn(CC(F)(F)F)c2)C3=O)cnc1OC
< 100 nM	Cc1cc(-c2cnc(C)c(OCC(F)F)c2)nc2c1C(=O)N(c1cnn(CC(F)F)c1)C2(C)C
< 100 nM	COc1ncc(-c2cc(C)c3c(n2)C(C)(C)N(c2cnn(CC(F)(F)F)c2)C3=O)cc1C(=O)NC(C)(C)C
< 100 nM	Cc1cc(-c2cnc(C)c(C(=O)N(C)C)c2)nc2c1C(=O)N(c1cnn(CC(F)(F)F)c1)C2(C)C
< 100 nM	Cc1ccc(-c2cc(C)c3c(n2)CN(c2cnn(CC(F)(F)F)c2)C3=O)cc1O
< 100 nM	CCn1ccc(N2Cc3nc(-c4cnc(OC)c(OCC(F)F)c4)cc(C)c3C2=O)n1
< 100 nM	CCn1ccc(N2C(=O)c3ccc(-c4cnc(OC)c(OC)c4)nc3[C@@H]2C)n1
100 to 490 nM	COc1cc(-c2ccc3c(n2)CN(c2cnn(CCn4ccc(C)n4)c2)C3=O)cnc1OC

Ki	SMILES
< 100 nM	Cc1cc(-c2cncc(OC(C)C)c2)nc2c1C(=O)N(c1cnn(CC(F)(F)F)c1)C2
100 to 490 nM	Cc1cc(-c2cncc(C(=O)N3CCOCC3)c2)nc2c1C(=O)N(c1cnn(CC(F)(F)F)c1)C2(C)C
100 to 490 nM	COc1cc(-c2ccc3c(c2)CN(c2cc(C)ns2)C3=O)cnc1OC
< 100 nM	COc1cc(-c2cc(C)c3c(n2)C(O)N(c2cnn(CC(F)(F)F)c2)C3=O)cnc1OC (centres undefined)
100 to 490 nM	COc1cc(-c2ccc3c(c2)CN(c2cnn(CC4COc5ccccc5O4)c2)C3=O)cnc1OC (centres undefined)
100 to 490 nM	COc1cc(-c2ccc3c(n2)CN(c2cnn(CCN4CCCCC4)c2)C3=O)cnc1OC
< 100 nM	COc1cc(-c2cc(C)c3c(n2)CN(c2cnn(CC(F)(F)F)c2)C3=O)cnc1OC
100 to 490 nM	COc1cc(-c2ccc3c(c2)CN(c2cnn(CC4CCCO4)c2)C3=O)cnc1OC (centres undefined)
< 100 nM	COc1cc(-c2ccc3c(n2)CN(c2cnn(C(C)C)c2)C3=O)cnc1OC
100 to 490 nM	COc1cc(-c2ccc3c(n2)CN(c2ccon2)C3=O)cnc1O
< 100 nM	Cc1cc(-c2cncc(NS(=O)(=O)N(C)C)c2)nc2c1C(=O)N(c1cnn(CC(F)(F)F)c1)C2(C)C
< 100 nM	COc1cc(-c2cc(C)c3c(n2)CN(c2cscn2)C3=O)cnc1OC
100 to 490 nM	Cc1cc(-c2cncc(NC(=O)C(C)(C)C)c2)nc2c1C(=O)N(c1cnn(CC(F)(F)F)c1)C2(C)C
< 100 nM	CCn1ccc(N2Cc3nc(-c4cnc(OC)c(OCC5CC5)c4)cc(C)c3C2=O)n1
< 100 nM	COc1cc(-c2ccc3c(n2)[C@H](N2CCOCC2)N(c2cnn(CC(F)(F)F)c2)C3=O)cnc1OC
< 100 nM	COc1ncc(-c2cc(C)c3c(c2)C(C)N(c2cnn(CC(F)(F)F)c2)C3=O)cc1OC(F)F (centres undefined)
< 100 nM	Cc1cc(-c2cncc(C(=O)O)c2)nc2c1C(=O)N(c1cnn(CC(F)(F)F)c1)C2(C)C
< 100 nM	Cc1cc(-c2cncc(C(=O)NC3CCOC3)c2)nc2c1C(=O)N(c1cnn(CC(F)(F)F)c1)C2(C)C (centres undefined)
< 100 nM	COc1cncc(-c2cc(C)c3c(n2)C2(CCOCC2)N(c2cnn(CC(F)(F)F)c2)C3=O)c1
< 100 nM	COC1c2nc(-c3cncc(OCC(F)F)c3)cc(C)c2C(=O)N1c1cnn(CC(F)(F)F)c1 (centres undefined)
< 100 nM	COc1ccc(-c2cc(C)c3c(c2)CN(c2cnn(CC(F)(F)F)c2)C3=O)cc1OC
100 to 490 nM	COc1cncc(-c2cc(C)c3c(n2)C(C)(C)N(c2cnn(C4CC4)c2)C3=O)c1
